Measurements taken from PMC10466176, “Sequential analysis for identification of byproduct from N-benzylation reaction: wound healing and anti-inflammatory potential of the byproduct 4-chlorobenzyl 2-((4-chlorobenzyl)amino)benzoate” (RSC Advances, 2023).

Target: T1, COX-2 (cyclooxygenase-2) (Homo sapiens, UniProt P35354)
T1 construct: gene PTGS2
T1 sequence (P35354 18-604): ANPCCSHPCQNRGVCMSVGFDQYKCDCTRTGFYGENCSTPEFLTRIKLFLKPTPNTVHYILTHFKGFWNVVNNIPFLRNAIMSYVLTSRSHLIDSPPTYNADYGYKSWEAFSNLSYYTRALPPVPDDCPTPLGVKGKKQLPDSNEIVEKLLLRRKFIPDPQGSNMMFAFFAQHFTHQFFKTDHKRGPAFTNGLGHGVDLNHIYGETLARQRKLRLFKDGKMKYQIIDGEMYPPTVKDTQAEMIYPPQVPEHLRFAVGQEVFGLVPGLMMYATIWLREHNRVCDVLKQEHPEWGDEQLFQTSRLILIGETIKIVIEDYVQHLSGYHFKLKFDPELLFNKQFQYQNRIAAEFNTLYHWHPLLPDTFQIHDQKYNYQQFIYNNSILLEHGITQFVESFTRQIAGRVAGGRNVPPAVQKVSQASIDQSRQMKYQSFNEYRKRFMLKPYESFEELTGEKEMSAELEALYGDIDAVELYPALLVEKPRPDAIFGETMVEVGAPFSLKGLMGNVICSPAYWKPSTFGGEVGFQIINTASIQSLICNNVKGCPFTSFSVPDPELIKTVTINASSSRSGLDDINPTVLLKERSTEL
Assay: COX-2 enzyme assay with ELISA kit (SEA699Hu)
Assay type: biochemical

IC50: 410 nM
SMILES: O=C(OCc1ccc(Cl)cc1)c1ccccc1NCc1ccc(Cl)cc1 [CCAB, 4-chlorobenzyl 2-((4-chlorobenzyl)amino)benzoate]
